Like-named read-outs stand apart in the source and are kept apart here.
Experiments:
[1] = test system: Leptosphaeria nodorum (LEPTNO); assay: In vitro fungitoxicity of hydrazones with and without copper towards Leptosphaeria nodorum (Example 26); format: cell-based; conditions: 72 h at 25° C.; for inhibition of growth at 0.05 µg/mL: Parastagonospora nodorum, 72 h, copper-minus medium, read-out: LEPTNO % Inhn. Minus Copper Observed
Phytophthora infestans = format: in vivo, Phytophthora infestans on tomato; conditions: applied 24 h before inoculation, assessed 7 days after inoculation
Phytophthora capsici = assay: In vitro fungitoxicity of hydrazones with and without copper towards Phytophthora capsici (Example 28, Table 3); format: cell-based; conditions: 0.050 μg/mL, 48 h; for % Inhn Plus copper Observed: copper-plus AS medium (CuCl2, 50 μM); for inhibition of growth at 0.05 µg/mL: Phytophthora capsici, copper-minus AS medium, read-out: % Inhn Minus copper Observed
Ustilago maydis = assay: In vitro fungitoxicity of hydrazones with and without copper towards Ustilago maydis (Example 29, Table 4); format: cell-based; conditions: 1 μg/mL, 48 h; for % Inhn. Plus copper Observed: copper-plus medium (CuCl2, 10 μM); for inhibition of growth at 1 µg/mL: Mycosarcoma maydis, copper-minus medium, read-out: % Inhn. Minus copper Observed
[2] = test system: Septoria tritici isolate USA-184; assay: In vitro fungitoxicity of hydrazones with and without copper towards Septoria tritici (Example 30, Table 5); format: cell-based; conditions: Zymoseptoria tritici, 0.05 μg/mL
[3] = test system: Leptosphaeria nodorum (LEPTNO); assay: Isolated metal-hydrazone complexes versus parent hydrazones, in vitro, Leptosphaeria nodorum (Example 31, Table 7); format: cell-based; conditions: Parastagonospora nodorum; 0.1 μg/mL; copper-minus medium; 72 h
[4] = compound 0.05 μg/mL, copper-plus medium (CuCl2.2H2O)
[5] = hydrazone 50 ppm + 50 μM CuCl2.2H2O, tomato
[6] = Colby formula, CuCl2, read-out: % Inhibition Plus copper Predicted
[7] = copper-minus medium, 90 h, read-out: % Inhibition Minus copper Observed
[8] = copper-plus medium CuCl2, 90 h, read-out: % Inhibition Plus copper Observed
[9] = test compound Concn. 0.05 μg/mL
[10] = copper-plus medium (CuCl2 10 μM), test compound Concn. 0.05 μg/mL
[11] = hydrazone 50 ppm with 50 μM CuCl2.2H2O, tomato late blight

| SMILES | inhibition of growth at 0.05 µg/mL ([1]; compound 0.05 μg/mL) | LEPTNO % Inhn. Plus Copper Observed [1, 4] | TLB % Control (Phytophthora infestans; [5]) | % Inhn Plus copper Observed (Phytophthora capsici) | inhibition of growth at 0.05 µg/mL (Phytophthora capsici) | % Inhn. Plus copper Observed (Ustilago maydis) | inhibition of growth at 1 µg/mL (Ustilago maydis) | inhibition at 0.05 µg/mL [2, 6] | inhibition at 0.05 µg/mL [2, 7] | inhibition at 0.05 µg/mL [2, 8] | inhibition at 0.1 µg/mL [3] | inhibition of growth at 0.05 µg/mL [1, 9] | LEPTNO % Inhn. Plus Copper Observed [1, 10] | TLB % Control (Phytophthora infestans; [11]) | melting point |
| --- | --- | --- | --- | --- | --- | --- | --- | --- | --- | --- | --- | --- | --- | --- | --- |
| O=C(N/N=C/c1cc(Cl)ccc1O)c1ccccc1 [Example 20] | 2.8% | 96.5% | 96.5% | 90.4% | 2.1% | 91.0% | 1.2% | 0% | 0% | 95.3% | 14.7% | – | – | – | – |
| C/C(=N\NC(=O)c1ccccc1)c1cc(Cl)cc(Cl)c1O [Example 60] | 7.3% | 97.5% | 85.0% | 76.4% | 4.1% | 93.5% | 0% | 20.6% | 20.6% | 94.8% | 23.3% | – | – | – | – |
| O=C(N/N=C/c1cc(C(F)(F)F)cc(C(F)(F)F)c1O)c1ccc(Cl)cc1 [Example 337] | – | – | – | 42.1% | 4.7% | 97.8% | 22% | 46.8% | 46.8% | 97.1% | 39.9% | 22.4% | 98.0% | 97.0% | 233 to 236 °C |
| COc1cccc(/C(C)=N/NC(=O)c2ccccc2C)c1O [Example 300] | – | – | – | – | – | – | – | – | – | – | 2.5% | 0% | 97.2% | 70.0% | 208 to 209 °C |
| COc1cccc(/C(C)=N/NC(=O)c2ccc(C)cc2)c1O [Example 302] | – | – | – | – | – | – | – | – | – | – | 22.9% | 0% | 96.4% | 82.0% | 146 to 148 °C |
| C/C(=N\NC(=O)c1cccc(Cl)c1)c1cc(Cl)cc(Cl)c1O [Example 135] | 0.2% | 98.6% | 96.0% | – | – | – | – | – | – | – | 20.6% | – | – | – | 245 to 246 °C |
| C/C(=N\NC(=O)c1ccc(C)cc1)c1cc(Cl)cc(Cl)c1O [Example 279] | 5.1% | 98.6% | 96.0% | – | – | – | – | – | – | – | 19.9% | – | – | – | 262 to 264 °C |
| COc1cccc(/C(C)=N/NC(=O)c2cccc(Cl)c2)c1O [Example 304] | – | – | – | – | – | – | – | – | – | – | 13.3% | 0% | 97.9% | 77.0% | 146 to 148 °C |
| O=C(N/N=C/c1cccc(Cl)c1O)c1ccccc1 [Example 231] | 0% | 98.5% | 81.3% | – | – | – | – | – | – | – | 10.7% | – | – | – | 188 to 189 °C |
| Cc1ccc(C(=O)N/N=C/c2cc(Br)cc(F)c2O)cc1 [Example 411] | – | – | – | – | – | – | – | – | – | – | 32.1% | 8.2% | 97.9% | 85.0% | 228 to 229 °C |
| C/C(=N\NC(=O)c1ccc(Cl)cc1)c1cc(Cl)cc(Cl)c1O [Example 136] | 9.7% | 98.6% | 95.0% | – | – | – | – | – | – | – | 34.7% | – | – | – | 260 to 262 °C |
| O=C(N/N=C/c1c(O)cccc1Cl)c1ccccc1 [Example 236] | 3.5% | 97.0% | 88.1% | – | – | – | – | – | – | – | 4.7% | – | – | – | 247 to 248 °C |
| O=C(N/N=C/c1c(Cl)ccc(Cl)c1O)c1ccc(Cl)cc1 [Example 370] | – | – | – | – | – | – | – | – | – | – | 23.1% | 3.5% | 97.5% | 91.0% | 271 to 273 °C |
| O=C(N/N=C/c1cccc(C(F)(F)F)c1O)c1ccc(Cl)cc1 [Example 348] | – | – | – | – | – | – | – | – | – | – | 23.9% | 16.3% | 98.3% | 100.0% | 215 to 216 °C |
| O=C(N/N=C/c1cc(Br)cc(F)c1O)c1ccc(C(F)(F)F)cc1 [Example 412] | – | – | – | – | – | – | – | – | – | – | 40.4% | 7.7% | 97.8% | 100.0% | 240 to 241 °C |
| COc1cccc(/C(C)=N/NC(=O)c2ccc(Cl)cc2)c1O [Example 305] | – | – | – | – | – | – | – | – | – | – | 27.1% | 0.5% | 98.3% | 61.0% | 168 to 170 °C |
| O=C(N/N=C/c1cc(Cl)cc(C(F)(F)F)c1O)c1ccccc1 [Example 320] | – | – | – | 81.4% | 2.9% | 95.2% | 0% | 9.5% | 9.5% | 92.1% | 22.1% | 17.1% | 96.4% | 100.0% | 225 to 226 °C |
| COc1cccc(/C(C)=N/NC(=O)c2ccccc2Cl)c1O [Example 303] | – | – | – | – | – | – | – | – | – | – | 10.6% | 0% | 98.0% | 45.0% | 233 to 234 °C |
| O=C(N/N=C/c1cc(Cl)cc(C(F)(F)F)c1O)c1ccc(Cl)cc1 [Example 381] | – | – | – | – | – | – | – | – | – | – | 43.9% | 31.8% | 98.6% | 100.0% | 232 to 234 °C |
| O=C(N/N=C/c1c(C(F)(F)F)ccc(Cl)c1O)c1ccc(Cl)cc1 [Example 452] | – | – | – | – | – | – | – | – | – | – | 19.3% | 12.9% | 100.0% | 100.0% | 236 to 238 °C |
| C/C(=N\NC(=O)c1cccc(C)c1)c1cc(Cl)cc(Cl)c1O [Example 278] | 1.7% | 97.7% | 90.0% | – | – | – | – | – | – | – | 16.2% | – | – | – | 221 to 223 °C |
| O=C(N/N=C/c1cccc(Cl)c1O)c1ccc(Cl)cc1 [Example 428] | – | – | – | – | – | – | – | – | – | – | 29.9% | 44.1% | 98.4% | 97.0% | 217 to 219 °C |
| COc1cccc(/C(C)=N/NC(=O)c2cccc(C)c2)c1O [Example 301] | – | – | – | – | – | – | – | – | – | – | 3.5% | 0% | 97.9% | 82.0% | 121 to 123 °C |
| O=C(N/N=C/c1cc(C(F)(F)F)ccc1O)c1ccc(Cl)cc1 [Example 440] | – | – | – | – | – | – | – | – | – | – | 23.8% | 2.9% | 100.0% | 98.0% | 252 to 254 °C |

Reference: patent US20120010075A1 (priority 2009, published 2012)
